# Reference: patent US5026694A, “Platinum complexes with one radiosensitizing ligand” (priority 1989, dated 1991)
# Like-named read-outs stand apart in the source and are kept apart here.
# What was measured:
# [1] = system: Chinese hamster ovary (CHO) cells; test: Toxicity in hypoxic and aerated CHO cells (plating efficiency/survival); format: cell-based; set-up: plating efficiency / effect on plating efficiency: dose or concentration left out as unconfirmed; settings: for order of toxicity of free ligand: free ligands; for toxicity compared with the compounds of the invention: 100 mM/dm^3 experiments; for approximate order of hypoxic toxicity of platinum complexes: hypoxia
# Description: The toxicity of the invention compounds with respect to Chinese hamster ovary (CHO) cells was compared in air and in nitrogen induced hypoxia as described by Moore, B. A., et al, Radiation Research (1976) 67:459-478. The radiosensitizing ligands, or cis or transdichlorodiamine platinum II (DDP) or the . bisubstituted platinum complexes, PtCl2 (L)2, were used as controls.
# The cells were carried in MEM a medium with 10% fetal calf serum, and plating efficiencies were determined on the seventh day after plating.
# In similar experiments at 100 mM/dm^3, MISO and trans-[PtCl2 (miso)2 ] show no toxicity. Survival rates for trans-DDP and monoammine were 0.2 and 0.1 respectively.
# Using 100 mM levels, mono-6NQ caused plating efficiency to drop to 0 after an hour, while 6NQ had no effect after 3 hours.
# CHO cells = test: Radiosensitization of CHO cells (enhancement ratio); format: cell-based, Chinese hamster; settings: for ER: Table 1; for radiosensitization, relative effectiveness: cis configuration, various concentrations, FIG. 2
# Description: Radiosensitization of CHO cells was determined as described by Moore, B. A., et al, sucra, at 4° C., except that the cells were incubated with complex for 1 hr at 37° C. to allow binding to DNA prior to radiation. A Picker X-ray source (250 kVp, 1.7 mm Cu) was used. As with the toxicity studies, cells were carried, irradiated, and plated in MEM a medium with 10% fetal calf serum, and plating efficiencies were determined on the seventh day after plating. Enhancement ratios (ER) were calculated from the doses required to reduce survival to 1%.
# cells = settings: cited from earlier work
# tumors = settings: cited from earlier work
# [2] = system: L1210 cells, cDDP resistant line; test: Toxicity in cisDDP-resistant L1210 cells (cross-resistance); format: cell-based; settings: for Ratio (ID50 cDDP resistant/cDDP sensitive): L1210 cells; for IC50: L1210, cDDP resistant line, read-out: ID50 (the source's name)
# From the text: (§1) Patients become resistant to cisplatin (cisDDP) and to many related drugs.
# [3] = system: L1210 cells, cDDP sensitive line; test: Toxicity in cisDDP-sensitive L1210 cells; format: cell-based; settings: read-out: ID50 (the source's name)
# From the text: as §1
# plasmid pSV2-gpt DNA = test: Binding to DNA by inhibition of restriction enzyme (BamHI) cleavage of plasmid DNA; format: biochemical; set-up: inhibition of BamHI cleavage / inhibition of cleavage with BamHI: unit of the concentration uncertain; settings: for binding to DNA as indicated by enzyme inhibition: 1 hr at 37° C.; for binding to DNA, relative: all concentrations, FIG. 8; for inhibition of cleavage with BamHI: FIG. 3
# Description: The ability of the invention compounds to bind DNA was tested using an assay which is based on inhibition of the ability of restriction enzymes to cleave the complexed DNA. The substrate in the assay was the plasmid pSV2-gpt (Mulligan, R., et al Science (1980) 209:1422-1427). After growth in E. coli. this 5.2 kb plasmid was extracted and linearized using PvuII. Cleavage of the extracted linearized segment by BamHI or EcoRI results in two fragments per enzyme. Inhibition of this cleavage by test compounds provides an assay method for binding of the test compounds.
# In the assay, DNA (20 mg/ml) in 100 mM Tris-HCl, 1 mM EDTA, pH 8, was treated with the test compounds at approximately 100 mM for 1 hr at 37° C. Unbound drug was then removed using a G-50 Sephadex spin column (Pharmacia).
# To 30 mM of the treated DNA, 23.5 ml of a buffer solution containing 0.33 M Tris-acetate, pH 7.9, 0.66 M potassium acetate, 0.10 M dithiothreitol, and 1 mg/ml BSA, along with 10 units of enzyme, were added. Enzyme activity was stopped using 1 ml 0.5 M EDTA after 30 min at 37° C. Tracking 0.25% bromophenol blue, 0.25% xylene cyanol in 30% glycerol water) was added, and 10 ml of the resulting solution loaded onto a 1% agarose gel made with E buffer (0.04 M Tris, 5 mM sodium acetate; 1 mM EDTA, pH 7.8) and subjected to horizontal electrophoresis. The slab gel was stained with aqueous ethidium bromide solution (1 ng/ml) and photographed under UV light.
# Inhibition of the restriction enzyme cleavage was assessed qualitatively by noting the relative proportion of bands, or quantitatively by analyzing densitometric scans of the negatives of the recorded pictures.
# cancer = settings: cited from earlier work
# DNA of CHO cells = test: Platinum bound to DNA extracted from whole CHO cells, atomic absorption; format: cell-based, Chinese hamster; set-up: dose or concentration left out as unconfirmed; settings: 1-2 hr exposure
# From the text: Though the results of this assay were erratic they establish that the Pt complexes cross cell membranes and bind to DNA in mammalian cells.
# KHT sarcoma = test: Potentiation of cytotoxicity in vivo by hydralazine, KHT sarcoma model
# [4] = 100 mM/dm^3, cis configuration or ligand alone, dose to reduce survival to 1%
# [5] = FIG. 7, cis-mono-4NI and cis-mono-5NI
smiles,measurement,setting,value
O=[N+]([O-])c1c[nH]cn1 [4-nitroimidazole],order of toxicity of free ligand,[1],4-nitroimidazole f MISO f ANT f METRO
same,enhancement ratio (ER),CHO cells; [4],1.10
"O=[N+]([O-])c1ccc2ncccc2c1 [6NQ, 6-nitroquinoline]",effect on plating efficiency,[1]; after 3 hours,no effect
"Nc1ncc([N+](=O)[O-])s1 [ANT, 2-amino-5-nitrothiazole]",order of toxicity of free ligand,[1],4-nitroimidazole f MISO f ANT f METRO
same,enhancement ratio (ER),CHO cells; [4],1.25
"Cc1ncc([N+](=O)[O-])n1CCO [METRO, 1,2-hydroxyethyl-2-methyl-5-nitroimidazole]",order of toxicity of free ligand,[1],4-nitroimidazole f MISO f ANT f METRO
same,sensitizing cells to radiation treatment in clinical trials,cells,beneficial effects in sensitizing cells to radiation treatment
COCC(O)Cn1ccnc1[N+](=O)[O-] (centres unmarked) [MISO],toxicity,[1]; 100 mM/dm^3,no toxicity
same,order of toxicity of free ligand,[1],4-nitroimidazole f MISO f ANT f METRO
same,ER,CHO cells; 100 mmol/dm^3,1.3
same,ER,CHO cells; 250 mmol/dm^3,1.4
same,sensitization in oxygen,CHO cells,no sensitization
same,sensitizing cells to radiation treatment in clinical trials,cells,beneficial effects in sensitizing cells to radiation treatment
O=[N+]([O-])c1nccn1CC(O)CN1CC1 (centres unmarked) [RSU-1069],side effects,tumors; chemotherapy,high incidence of side effects
same,amount of RSU-1069 required for effectiveness with 5-hydroxytryptamine or hydralazine,tumors; coadministration of 5-hydroxytryptamine or hydralazine,can be reduced by administration of 5-hydroxytryptamine or hydralazine
same,enhancement of effect of RSU-1069 by hydralazine,"tumors; hydralazine 5 mg/kg or 30 mg/kg, RSU-1069 0.1 mg/g IP, within three hours",enhance the effect of RSU-1069
O=C(Cn1ccnc1[N+](=O)[O-])NCCO [SR-2508],sensitizing cells to radiation treatment in clinical trials,cells,beneficial effects in sensitizing cells to radiation treatment
Cc1n(CCO)c([N+](=O)[O-])c[n+]1[Pt-2]([NH3+])([Cl])[Cl] [cis mono METRO],Ratio (ID50 cDDP resistant/cDDP sensitive),[2],5
same,IC50,[3],4.4 mM
"N.N.[Cl][Pt][Cl] [cis-DDP, cis[PtCl2 (NH3)2]]",toxicity compared with the compounds of the invention,[1],somewhat more toxic than the compounds of the invention
same,approximate order of hypoxic toxicity of platinum complexes,[1],cis-DDP ff trans-mono-MISO f monoammine Z cis-mono-MISO f trans-DDP f mono-METRO Z mono-NI f mono-ANT
same,inhibition of BamHI cleavage,plasmid pSV2-gpt DNA; 40 (unit uncertain),30%
same,binding to DNA as indicated by enzyme inhibition,plasmid pSV2-gpt DNA,binds much more strongly than the monoammine
same,IC50,[2],5 mM
same,Ratio (ID50 cDDP resistant/cDDP sensitive),[2],50
same,effectiveness in sensitive versus resistant cells,"[2]; more effective in ""sensitive"" cells",50 ×
same,antineoplastic activity,"cancer; literature, 1969",shown to have antineoplastic activity
same,usefulness in treatment of cancer,cancer; testicular cancer versus other sites,"useful in the treatment of testicular cancer, but less so in treatment of cancers at other sites"
same,ER,CHO cells; 10 mmol/dm^3,1.3
same,IC50,[3],0.1 mM
same,platinum bound to the extracted DNA,DNA of CHO cells,6 ng Pt/10^6 cells
"COCC(O)Cn1cc[n+]([Pt-2]([NH3+])([Cl])[Cl])c1[N+](=O)[O-] (stereo not drawn) [cis-mono-MISO, PtCl2 (NH3) (misonidazole)]",toxicity in hypoxia versus in air,"[1]; 100 mM/dm^3, aerobic and hypoxic cells, FIG. 1",toxicity is greater in hypoxia than in air
same,toxicity compared with MISO alone and cisDDP,"[1]; complex 100 mM/dm^3, cis-DDP at 10 mM/dm^3","more toxic than MISO alone, although less toxic than cisDDP"
same,ER,CHO cells; 100 mmol/dm^3,1.25
same,sensitization in oxygen,CHO cells,no sensitization
same,IC50,[3]; listed as cis mono MISO,8.5 mM
"N.O=[N+]([O-])c1c[nH]cn1.[Cl][Pt][Cl] [mono-4NI, PtCl2 (ammine)(4-nitroimidazole)]",approximate order of hypoxic toxicity of platinum complexes,[1],cis-DDP ff trans-mono-MISO f monoammine Z cis-mono-MISO f trans-DDP f mono-METRO Z mono-NI f mono-ANT
same,"binding to DNA, relative",plasmid pSV2-gpt DNA,"neither bound as well, however, as cis-DDP"
same,enhancement ratio (ER),CHO cells; [4],1.16
same,enhancement ratio (ER),CHO cells; [5],1.16
same,"radiosensitization, relative effectiveness",CHO cells,somewhat more effective than mono-ANT
"N.O=[N+]([O-])c1cnc[nH]1.[Cl][Pt][Cl] [mono-5NI, PtCl2 (ammine)(5-nitroimidazole)]","binding to DNA, relative",plasmid pSV2-gpt DNA,"more effective binding to DNA at all concentrations than cis-mono-4NI; neither bound as well, however, as cis-DDP"
same,enhancement ratio (ER),CHO cells; [5],1.28
"N.O=[N+]([O-])c1ccc2ncccc2c1.[Cl][Pt][Cl] [mono-6NQ, [PtCl2 (NH3)(6-nitroquinoline)]",toxicity compared with 6NQ alone,[1]; FIG. 5,much higher toxicity than 6NQ alone
same,plating efficiency,"[1]; after an hour, 60 min",0
"N.Nc1ncc([N+](=O)[O-])s1.[Cl][Pt][Cl] [mono-ANT, PtCl2 (ammine)(2-amino-5-nitrothiazole)]",approximate order of hypoxic toxicity of platinum complexes,[1],cis-DDP ff trans-mono-MISO f monoammine Z cis-mono-MISO f trans-DDP f mono-METRO Z mono-NI f mono-ANT
same,inhibition of cleavage with BamHI,plasmid pSV2-gpt DNA; 320 (unit uncertain),At least 10%
same,enhancement ratio (ER),CHO cells; [4],1.15
Cc1ncc([N+](=O)[O-])n1CCO.N.[Cl][Pt][Cl] [mono-METRO],approximate order of hypoxic toxicity of platinum complexes,[1],cis-DDP ff trans-mono-MISO f monoammine Z cis-mono-MISO f trans-DDP f mono-METRO Z mono-NI f mono-ANT
same,inhibition of cleavage with BamHI,plasmid pSV2-gpt DNA; approximately 50 mM,At least 10%
same,"radiosensitization, relative effectiveness",CHO cells,approximately equal to mono-ANT
"COCC(O)Cn1cc[n+]([Pt-2]([NH3+])([Cl])[Cl])c1[N+](=O)[O-] (centres unmarked) [mono-MISO, PtCl2 (NH3) (misonidazole)]",inhibition of cleavage with BamHI,plasmid pSV2-gpt DNA; approximately 50 mM,At least 10%
same,"radiosensitization, relative effectiveness",CHO cells,somewhat more effective than mono-NI
same,potentiation by hydralazine,"KHT sarcoma; hydralazine 5 mg/kg, FIG. 4",potentiating effects of hydralazine on this compound
same,dose reduction to achieve equitoxic doses when hydralazine is coadministered,KHT sarcoma; with hydralazine,4 ×
same,drop in cell survival with combined therapy,"KHT sarcoma; with hydralazine, mono-MISO 10 to 300 mg/kg, FIG. 4",approx. 3 logs
"N.[Cl][Pt-]([Cl])[Cl].[K+] [monoammine, K[PtCl3 (NH3)]]",Survival rate,[1]; 100 mM/dm^3,0.1
same,toxicity compared with the compounds of the invention,[1],somewhat more toxic than the compounds of the invention
same,approximate order of hypoxic toxicity of platinum complexes,[1],cis-DDP ff trans-mono-MISO f monoammine Z cis-mono-MISO f trans-DDP f mono-METRO Z mono-NI f mono-ANT
same,inhibition of BamHI cleavage,plasmid pSV2-gpt DNA; 160 mM (level not reached until this concentration),30%
same,binding to DNA as indicated by enzyme inhibition,plasmid pSV2-gpt DNA,showed binding to the DNA as indicated by enzyme inhibition
same,ER,CHO cells; 100 mmol/dm^3,1.2
"N.N.[Cl][Pt+2][Cl] [trans-DDP, transdichlorodiamine platinum II]",Survival rate,[1]; 100 mM/dm^3,0.2
same,toxicity compared with the compounds of the invention,[1],somewhat less toxic
same,approximate order of hypoxic toxicity of platinum complexes,[1],cis-DDP ff trans-mono-MISO f monoammine Z cis-mono-MISO f trans-DDP f mono-METRO Z mono-NI f mono-ANT
same,IC50,[2],66 mM
same,Ratio (ID50 cDDP resistant/cDDP sensitive),[2],3
same,ER,CHO cells; 100 mmol/dm^3,1.3
same,IC50,[3],22 mM
same,platinum bound to the extracted DNA,DNA of CHO cells,5 ng Pt/10^6 cells
"COCC(O)Cn1cc[n+]([Pt-2]([Cl])([Cl])[n+]2ccn(CC(O)COC)c2[N+](=O)[O-])c1[N+](=O)[O-] (stereo not drawn) [trans-bis-MISO, trans-[PtCl2 (miso)2]]",toxicity,[1]; 100 mM/dm^3,no toxicity
same,toxicity compared with the compounds of the invention,[1],somewhat less toxic
same,ER,CHO cells; 100 mmol/dm^3,1.2
same,sensitization in oxygen,CHO cells,no sensitization
